Results: article PMC5218480 (PLoS ONE, 2017)

Tested on: MV-4-11 cells
Test: Gene expression microarray analysis (Affymetrix PrimeView) and GSEA
Type: cell-based, human
Parameters: RFU PODN (11730768_x_at) / Fold change /veh PODN (11730768_x_at) / RFU LINC00158 (11744669_a_at) / Fold change /veh LINC00158 (11744669_a_at) / RFU DUSP10 (11751237_a_at) / Fold change /veh DUSP10 (11751237_a_at) / RFU ID3 (11757404_x_at) / Fold change /veh ID3 (11757404_x_at) / RFU PLEKHG5 (11737974_s_at) / Fold change /veh PLEKHG5 (11737974_s_at) / RFU LRRC4B (11730491_at) / Fold change /veh LRRC4B (11730491_at) / RFU GIMAP4 (11747438_a_at) / Fold change /veh GIMAP4 (11747438_a_at) / RFU KRT8 (11758183_x_at) / Fold change /veh KRT8 (11758183_x_at) / RFU CNN1 (11734310_a_at) / Fold change /veh CNN1 (11734310_a_at) / RFU VPS37D (11726825_at) / Fold change /veh VPS37D (11726825_at) / RFU C10orf10 (11716522_x_at) / Fold change /veh C10orf10 (11716522_x_at) / RFU KIR2DL2 /// KIR2DL4 /// KIR2DL5A /// KIR2DL5B /// KIR2DS1 /// KIR2DS2 /// KIR2DS3 /// KIR2DS4 /// KIR3DL3 /// KIR3DL3 /// KIR3DS1 (11738374_at) / Fold change /veh KIR2DL2 /// KIR2DL4 /// KIR2DL5A /// KIR2DL5B /// KIR2DS1 /// KIR2DS2 /// KIR2DS3 /// KIR2DS4 /// KIR3DL3 /// KIR3DL3 /// KIR3DS1 (11738374_at) / RFU C1QL1 (11718748_at) / Fold change /veh C1QL1 (11718748_at) / RFU TMPRSS4 (11747572_a_at) / Fold change /veh TMPRSS4 (11747572_a_at) / RFU HAMP (11756126_x_at) / Fold change /veh HAMP (11756126_x_at) / RFU RNFT2 (11725882_a_at) / Fold change /veh RNFT2 (11725882_a_at) / RFU NR4A2 (11747474_a_at) / Fold change /veh NR4A2 (11747474_a_at) / RFU ABCC12 (11746883_a_at) / Fold change /veh ABCC12 (11746883_a_at) / RFU TMEM136 (11760407_x_at) / Fold change /veh TMEM136 (11760407_x_at) / RFU CLDN22 /// WWC2 (11732394_at) / Fold change /veh CLDN22 /// WWC2 (11732394_at) / RFU HLA-DPB1 (11760878_x_at) / Fold change /veh HLA-DPB1 (11760878_x_at) / RFU SPINT1 (11716480_a_at) / Fold change /veh SPINT1 (11716480_a_at) / RFU GAP43 (11754022_s_at) / Fold change /veh GAP43 (11754022_s_at) / RFU A4GNT (11735810_at) / Fold change /veh A4GNT (11735810_at) / RFU PRB3 (11715151_x_at) / Fold change /veh PRB3 (11715151_x_at) / RFU TUBB4B (11761932_at) / Fold change /veh TUBB4B (11761932_at) / RFU CAPN14 (11732068_a_at) / Fold change /veh CAPN14 (11732068_a_at) / RFU TMCC2 (11721928_a_at) / Fold change /veh TMCC2 (11721928_a_at) / RFU IRGQ (11745062_a_at) / Fold change /veh IRGQ (11745062_a_at) / RFU FAM174B (11720279_a_at) / Fold change /veh FAM174B (11720279_a_at) / RFU TMPRSS4 (11748680_a_at) / Fold change /veh TMPRSS4 (11748680_a_at) / RFU FAM212B (11763350_a_at) / Fold change /veh FAM212B (11763350_a_at) / RFU PLEKHG5 (11743358_a_at) / Fold change /veh PLEKHG5 (11743358_a_at) / RFU ZSCAN30 (11745921_a_at) / Fold change /veh ZSCAN30 (11745921_a_at) / RFU CMKLR1 (11741424_a_at) / Fold change /veh CMKLR1 (11741424_a_at) / RFU LOC101060620 /// MAPK8IP1 (11723275_at) / Fold change /veh LOC101060620 /// MAPK8IP1 (11723275_at) / RFU SPTSSB (11747773_x_at) / Fold change /veh SPTSSB (11747773_x_at) / RFU PRSS12 (11739890_at) / Fold change /veh PRSS12 (11739890_at) / RFU BIN1 (11741810_x_at) / Fold change /veh BIN1 (11741810_x_at) / RFU WNT11 (11732464_a_at) / Fold change /veh WNT11 (11732464_a_at) / RFU C10orf10 (11716521_a_at) / Fold change /veh C10orf10 (11716521_a_at) / RFU C5orf56 (11738089_at) / Fold change /veh C5orf56 (11738089_at) / RFU CYB561 (11721691_x_at) / Fold change /veh CYB561 (11721691_x_at) / RFU ANKRD19P (11752326_a_at) / Fold change /veh ANKRD19P (11752326_a_at) / RFU OR2T12 /// OR2T33 /// OR2T8 (11738714_s_at) / Fold change /veh OR2T12 /// OR2T33 /// OR2T8 (11738714_s_at) / RFU VCAN (11748164_a_at) / Fold change /veh VCAN (11748164_a_at) / RFU JSRP1 (11732532_at) / Fold change /veh JSRP1 (11732532_at) / RFU KRTAP10-11 (11738290_x_at) / Fold change /veh KRTAP10-11 (11738290_x_at) / RFU MYO3A (11730013_a_at) / Fold change /veh MYO3A (11730013_a_at) / RFU EBF3 (11725865_a_at) / Fold change /veh EBF3 (11725865_a_at) / RFU CAMK2N1 (11719241_x_at) / Fold change /veh CAMK2N1 (11719241_x_at) / RFU C5orf56 (11738088_a_at) / Fold change /veh C5orf56 (11738088_a_at) / RFU OLFML3 (11715873_a_at) / Fold change /veh OLFML3 (11715873_a_at) / RFU LOC100653217 /// NTM (11731650_a_at) / Fold change /veh LOC100653217 /// NTM (11731650_a_at) / RFU MAPK11 (11762145_a_at) / Fold change /veh MAPK11 (11762145_a_at) / RFU FIZ1 (11724087_x_at) / Fold change /veh FIZ1 (11724087_x_at) / RFU OASL (11726364_x_at) / Fold change /veh OASL (11726364_x_at) / RFU SOX15 (11748057_x_at) / Fold change /veh SOX15 (11748057_x_at) / RFU CD79A (11719716_a_at) / Fold change /veh CD79A (11719716_a_at) / RFU HIST1H1D (11736915_at) / Fold change /veh HIST1H1D (11736915_at) / RFU CASKIN2 (11723855_a_at) / Fold change /veh CASKIN2 (11723855_a_at) / RFU LOC730098 (11760151_x_at) / Fold change /veh LOC730098 (11760151_x_at) / RFU OR4N2 (11742367_at) / Fold change /veh OR4N2 (11742367_at) / RFU PRRT2 (11749266_a_at) / Fold change /veh PRRT2 (11749266_a_at) / RFU SNX32 (11753110_a_at) / Fold change /veh SNX32 (11753110_a_at) / RFU CDHR5 (11726645_a_at) / Fold change /veh CDHR5 (11726645_a_at) / RFU RCAN1 (11760418_a_at) / Fold change /veh RCAN1 (11760418_a_at) / RFU FAM167A (11723789_a_at) / Fold change /veh FAM167A (11723789_a_at) / RFU FAM26E (11764081_at) / Fold change /veh FAM26E (11764081_at) / RFU ISYNA1 (11749810_s_at) / Fold change /veh ISYNA1 (11749810_s_at) / RFU ACY1 (11761880_at) / Fold change /veh ACY1 (11761880_at) / RFU 11764098_at / Fold change /veh 11764098_at / RFU SAMD14 (11745864_x_at) / Fold change /veh SAMD14 (11745864_x_at) / RFU NPB (11741838_a_at) / Fold change /veh NPB (11741838_a_at) / RFU TMPRSS6 (11731388_a_at) / Fold change /veh TMPRSS6 (11731388_a_at) / RFU KRTAP10-2 (11738614_at) / Fold change /veh KRTAP10-2 (11738614_at) / RFU ARHGAP8 /// PRR5-ARHGAP8 (11727945_x_at) / Fold change /veh ARHGAP8 /// PRR5-ARHGAP8 (11727945_x_at) / RFU KRTAP5-7 /// NADSYN1 (11734609_at) / Fold change /veh KRTAP5-7 /// NADSYN1 (11734609_at) / RFU RASL12 (11751679_a_at) / Fold change /veh RASL12 (11751679_a_at) / RFU CDKN2B (11736163_a_at) / Fold change /veh CDKN2B (11736163_a_at) / RFU PRF1 (11729649_at) / Fold change /veh PRF1 (11729649_at) / RFU, ZNF638 /// ZNF638-IT1 / Fold change vs veh, ZNF638 /// ZNF638-IT1 / RFU, PANK3 / Fold change vs veh, PANK3 / RFU, SH3YL1 / Fold change vs veh, SH3YL1 / RFU, ZEB2 / Fold change vs veh, ZEB2 / RFU, NRIP1 / Fold change vs veh, NRIP1 / RFU, PTTG1IP / Fold change vs veh, PTTG1IP / RFU, CAPN2 / Fold change vs veh, CAPN2 / RFU, MED14 / Fold change vs veh, MED14 / RFU, SNORA58 / Fold change vs veh, SNORA58 / RFU, C1orf63 / Fold change vs veh, C1orf63 / RFU, LRRFIP1 / Fold change vs veh, LRRFIP1 / RFU, NDUFAF7 / Fold change vs veh, NDUFAF7 / RFU, SLC12A2 / Fold change vs veh, SLC12A2 / RFU, IBTK / Fold change vs veh, IBTK / RFU, ESF1 / Fold change vs veh, ESF1 / Fold change vs veh, TMEM50B / RFU, TAOK1 / Fold change vs veh, TAOK1 / RFU, ACBD3 / Fold change vs veh, ACBD3 / RFU, TMA16 / Fold change vs veh, TMA16 / RFU, RWDD3 / Fold change vs veh, RWDD3 / RFU, BCAT1 / Fold change vs veh, BCAT1 / RFU, EDEM3 / Fold change vs veh, EDEM3 / RFU, TMEM33 / Fold change vs veh, TMEM33 / RFU, WDR75 / Fold change vs veh, WDR75 / RFU, AHCTF1 / Fold change vs veh, AHCTF1 / RFU, TFRC / Fold change vs veh, TFRC / RFU, ZDHHC17 / Fold change vs veh, ZDHHC17 / RFU, NOM1 / Fold change vs veh, NOM1 / RFU, ARL8B / Fold change vs veh, ARL8B / RFU, ZBTB11 / Fold change vs veh, ZBTB11 / RFU, TAMM41 / Fold change vs veh, TAMM41 / RFU, KIAA1704 /// LOC100996395 / Fold change vs veh, KIAA1704 /// LOC100996395 / RFU, ING1 / Fold change vs veh, ING1 / RFU, TRMT61B / Fold change vs veh, TRMT61B / RFU, FUBP3 / Fold change vs veh, FUBP3 / RFU, TP53 / Fold change vs veh, TP53 / RFU, TNKS2 / Fold change vs veh, TNKS2 / RFU, ZFP14 / Fold change vs veh, ZFP14 / RFU, ACTR2 / Fold change vs veh, ACTR2 / RFU, PPP3R1 / Fold change vs veh, PPP3R1 / RFU, PIK3R1 / Fold change vs veh, PIK3R1 / RFU, HNRNPA1 / Fold change vs veh, HNRNPA1 / RFU, RNF170 / Fold change vs veh, RNF170 / RFU, ZNF28 / Fold change vs veh, ZNF28 / RFU, RNGTT / Fold change vs veh, RNGTT / RFU, OGT / Fold change vs veh, OGT / RFU, BRD1 / Fold change vs veh, BRD1 / RFU, MARS / Fold change vs veh, MARS / RFU, ZNF655 / Fold change vs veh, ZNF655 / RFU, FAHD1 / Fold change vs veh, FAHD1 / RFU, BDP1 / Fold change vs veh, BDP1 / RFU, LRRCC1 / Fold change vs veh, LRRCC1 / RFU, ARID1A / Fold change vs veh, ARID1A / RFU, ZNF146 / Fold change vs veh, ZNF146 / RFU, ZNF330 / Fold change vs veh, ZNF330 / RFU, GPN3 / Fold change vs veh, GPN3 / RFU, C9orf123 / Fold change vs veh, C9orf123 / RFU, N4BP2L2 / Fold change vs veh, N4BP2L2 / RFU, ARFIP1 / Fold change vs veh, ARFIP1 / RFU, FAM179B / Fold change vs veh, FAM179B / RFU, BCL10 / Fold change vs veh, BCL10 / RFU, UHRF1BP1L / Fold change vs veh, UHRF1BP1L / RFU, BET1 / Fold change vs veh, BET1 / RFU, CNOT2 / Fold change vs veh, CNOT2 / RFU, ZNF268 / Fold change vs veh, ZNF268 / Fold change vs veh, ZNF507 / RFU, DGCR2 / Fold change vs veh, DGCR2 / RFU, WDSUB1 / Fold change vs veh, WDSUB1 / Fold change vs veh, HSP90B1 /// MIR3652 / RFU, ADSS / Fold change vs veh, ADSS / RFU, GK / Fold change vs veh, GK / RFU, ZNF148 / Fold change vs veh, ZNF148 / RFU, TAF9 / Fold change vs veh, TAF9 / RFU, SLC1A5 / Fold change vs veh, SLC1A5 / RFU, SLMO2 / Fold change vs veh, SLMO2 / RFU, ABCC4 / Fold change vs veh, ABCC4 / RFU, LOC101060439 /// RAP1B / Fold change vs veh, LOC101060439 /// RAP1B / RFU, RFX7 / Fold change vs veh, RFX7 / RFU, GTPBP10 / Fold change vs veh, GTPBP10 / RFU, CNEP1R1 / Fold change vs veh, CNEP1R1 / RFU, BIVM-ERCC5 /// ERCC5 / Fold change vs veh, BIVM-ERCC5 /// ERCC5 / RFU, ILF3 / Fold change vs veh, ILF3 / RFU 11762660_at / Fold change /veh 11762660_at / RFU VCAN (11757783_s_at) / Fold change /veh VCAN (11757783_s_at) / RFU DDX43 (11728927_at) / Fold change /veh DDX43 (11728927_at) / RFU KRT8 (11758188_x_at) / Fold change /veh KRT8 (11758188_x_at) / RFU NKD1 (11759106_at) / Fold change /veh NKD1 (11759106_at) / RFU SRD5A1 (11742802_a_at) / Fold change /veh SRD5A1 (11742802_a_at) / RFU TPSAB1 /// TPSB2 (11721975_s_at) / Fold change /veh TPSAB1 /// TPSB2 (11721975_s_at) / RFU GSTM3 (11746129_a_at) / Fold change /veh GSTM3 (11746129_a_at) / RFU IL23R (11737362_x_at) / Fold change /veh IL23R (11737362_x_at) / RFU TMEM51 (11727254_a_at) / Fold change /veh TMEM51 (11727254_a_at) / RFU PIWIL2 (11732686_x_at) / Fold change /veh PIWIL2 (11732686_x_at) / RFU ORM1 (11744905_x_at) / Fold change /veh ORM1 (11744905_x_at) / RFU CCDC152 (11743942_at) / Fold change /veh CCDC152 (11743942_at) / RFU ECM1 (11717891_a_at) / Fold change /veh ECM1 (11717891_a_at) / RFU IL23R (11748794_a_at) / Fold change /veh IL23R (11748794_a_at) / RFU TNFAIP8L3 (11732012_x_at) / Fold change /veh TNFAIP8L3 (11732012_x_at) / RFU MBOAT4 (11741988_at) / Fold change /veh MBOAT4 (11741988_at) / RFU 11764193_at / Fold change /veh 11764193_at / RFU TMEM53 (11763286_at) / Fold change /veh TMEM53 (11763286_at) / RFU MAGEB2 (11727129_at) / Fold change /veh MAGEB2 (11727129_at) / RFU TMEM200A (11744735_a_at) / Fold change /veh TMEM200A (11744735_a_at) / RFU CCDC152 (11751479_a_at) / Fold change /veh CCDC152 (11751479_a_at) / RFU FAM211A (11726209_a_at) / Fold change /veh FAM211A (11726209_a_at) / RFU RGS16 (11746705_a_at) / Fold change /veh RGS16 (11746705_a_at) / RFU VCAN (11755009_s_at) / Fold change /veh VCAN (11755009_s_at) / RFU RHOB (11743442_s_at) / Fold change /veh RHOB (11743442_s_at) / RFU RGS16 (11720943_a_at) / Fold change /veh RGS16 (11720943_a_at) / RFU RGS16 (11720944_at) / Fold change /veh RGS16 (11720944_at) / RFU, VPS4B / Fold change vs veh, VPS4B / RFU, CREB1 / Fold change vs veh, CREB1 / RFU, DNAJC13 / Fold change vs veh, DNAJC13 / RFU, GNAQ / Fold change vs veh, GNAQ / RFU, CDK5R1 / Fold change vs veh, CDK5R1 / RFU, ZRANB3 / Fold change vs veh, ZRANB3 / RFU, CUL4A / Fold change vs veh, CUL4A / RFU, CCNY / Fold change vs veh, CCNY / RFU, UFL1 / Fold change vs veh, UFL1 / RFU, COG3 / Fold change vs veh, COG3 / RFU, DIAPH2 / Fold change vs veh, DIAPH2 / RFU, SKA2 / Fold change vs veh, SKA2 / RFU, AFF3 / Fold change vs veh, AFF3 / RFU, LMF1 / Fold change vs veh, LMF1 / RFU, IPO11 / Fold change vs veh, IPO11 / RFU, DFFB / Fold change vs veh, DFFB / RFU, FOXP1 / Fold change vs veh, FOXP1 / RFU, CARD8 / Fold change vs veh, CARD8 / RFU, STRN3 / Fold change vs veh, STRN3 / RFU, ADK / Fold change vs veh, ADK / RFU, RASSF2 / Fold change vs veh, RASSF2 / RFU, WIPF1 / Fold change vs veh, WIPF1 / RFU, LARP1B / Fold change vs veh, LARP1B / RFU, RASA1 / Fold change vs veh, RASA1 / RFU, RB1 / Fold change vs veh, RB1 / RFU, PPFIA1 / Fold change vs veh, PPFIA1 / RFU, MAT2A / Fold change vs veh, MAT2A / RFU, CCT5 / Fold change vs veh, CCT5 / RFU, WDR92 / Fold change vs veh, WDR92 / RFU, CUX1 / Fold change vs veh, CUX1 / RFU, TTC7A / Fold change vs veh, TTC7A / RFU, TMEM135 / Fold change vs veh, TMEM135 / RFU, DEPTOR / Fold change vs veh, DEPTOR / RFU, CPM / Fold change vs veh, CPM / RFU, DNAJB6 / Fold change vs veh, DNAJB6 / RFU, CACNA2D3 / Fold change vs veh, CACNA2D3 / RFU, DTX4 / Fold change vs veh, DTX4 / RFU, TFCP2 / Fold change vs veh, TFCP2 / RFU, GMCL1 /// GMCL1P1 / Fold change vs veh, GMCL1 /// GMCL1P1 / RFU, AEBP2 / Fold change vs veh, AEBP2 / RFU, SNHG1 /// SNORD22 /// SNORD25 /// SNORD26 /// SNORD27 /// SNORD28 /// SNORD29 /// SNORD31 / Fold change vs veh, SNHG1 /// SNORD22 /// SNORD25 /// SNORD26 /// SNORD27 /// SNORD28 /// SNORD29 /// SNORD31 / Fold change (Aza/veh), C12orf56 (ProbeSet 11735607_a_at) / Fold change (ACY-1035/veh), C12orf56 (ProbeSet 11735607_a_at) / Fold change (Aza/veh), FGFR1OP (ProbeSet 11751329_s_at) / Fold change (ACY-1035/veh), FGFR1OP (ProbeSet 11751329_s_at) / Fold change (Aza/veh), VPS36 (ProbeSet 11739960_a_at) / Fold change (ACY-1035/veh), VPS36 (ProbeSet 11739960_a_at) / RFU SYPL1 (11715823_x_at) / Fold change /veh SYPL1 (11715823_x_at) / RFU IGFBP7 (11715501_s_at) / Fold change /veh IGFBP7 (11715501_s_at) / RFU REEP3 (11722064_at) / Fold change /veh REEP3 (11722064_at) / RFU IGLL1 (11728026_x_at) / Fold change /veh IGLL1 (11728026_x_at): dose or concentration left out as unconfirmed
Settings: ProbeSet 11724763_s_at; LIST D

## Nc1ccc(-c2cccs2)cc1NC(=O)c1ccc2c(c1)cc(C1CC1)n2CCN1CCOCC1 [ACY-1035]
  RFU, DEPTOR: 104.61 RFU
